The record followed here is publication PMC10574351, “First-Row Transition Metal Complexes Incorporating the 2-(2′-pyridyl)quinoxaline Ligand (pqx), as Potent Inflammatory Mediators: Cytotoxic Properties and Biological Activities against the Platelet-Activating Factor (PAF) and Thrombin” (Molecules, 2023).

The test system of data set [1] is thrombin-induced aggregation in washed rabbit platelets (WRPs). The data set can be described thus: Inhibition of thrombin-induced aggregation in washed rabbit platelets. The format is cell-based. Conditions: for IC50: washed rabbit platelets, mean ± SD, read-out: IC50 (μM) towards Thrombin in WRPs. On the procedure: The biological experiments of PAF-induced platelet aggregation as well as the evaluation of the inhibitory effect of its synthetic compounds were performed according to thoroughly described protocols. The inhibitory effect of the starting materials (pqx = 2-(2′-pyridyl)quinoxaline, CrCl3 × 3H2O, MnCl2 × 4H2O, FeCl2 × 4H2O, CoCl2 × 6H2O, NiCl2 × 6H2O, CuCl2 × 2H2O, ZnCl2) and of the coordination compounds 1–7, towards PAF and thrombin related biological activities (aggregation experiments) in washed rabbit platelets (WRPs) was carried out according to previously described protocols. Briefly, in order to obtain the washed rabbit platelets (WRPs), platelet-rich plasma was washed on Ficoll–Paque cushions and adjusted to […] platelets/mL of Tyrode’s buffer, pH 7.2. The dilution of PAF was prepared using pyrogen-free 0.15 M NaCl containing 2.5 mg/mL of crystallized bovine serum albumin, required for dispersion of PAF. The compounds under investigation were firstly dissolved in the appropriate solvent that is: DMSO for pqx (0.010 M), H2O for CrCl3 × 3H2O (0.016 M), H2O for MnCl2 × 4H2O (0.004 M), DMSO-EtOH (4/1, v/v)) for FeCl2 × 4H2O (0.014 M), H2O for CoCl2 × 6H2O (0.010 M), H2O for NiCl2 × 6H2O (0.010 M), H2O for CuCl2 × 2H2O (0.008 M), H2O for ZnCl2 (0.013 M), DMSO for 1 (0.017 M), DMSO for 2 (0.010 M0, DMSO for 3 (0.004 M), DMSO for 4 (0.002 M), DMSO for 5 (0.003 M), DMSO-EtOH-H2O (25/1/1, v/v)) for 6 (0.006 M), DMSO for 7 (0.002 M) and aliquots of these solutions were then added in solutions (2.5 mg BSA/mL) of saline.
The experiment on the inhibitory effect of each compound of interest against the washed rabbit platelets (WRPs) aggregation was carried out as per the already described method. The platelets were from male New Zealand white rabbits (about 20), individually housed in stainless steel cages in an air-conditioned room (19 ± 1 °C, 55 ± 5% humidity on a 12/12 h artificial light/dark cycle). Blood samples were drawn from the main ear artery. Microliters of PAF in a final concentration of about 10^–10 M were added to the cuvette of the aggregometer, and the height of the platelet aggregation was monitored. The platelet aggregation induced by PAF, or thrombin was measured before (considered as 0% inhibition) and after the addition of various concentrations of the examined sample, creating a linear curve of percentage inhibition (ranging from 0 to 100%) versus different concentrations of the sample. From this curve, the concentration of the sample that inhibited 50% PAF-induced aggregation was calculated, and this value was defined as IC50 (Inhibitory concentration for 50% Inhibition). Dithiothreitol-insensitive PAF choline phosphotransferase, lyso-PAF:acetyl-CoA acetyltransferase and PAF-acetylhydrolase activity assays were performed on the homogenates of rabbit leukocytes while the activity of lipoprotein-associated phospholipase A2 was assessed on plasma as previously described. The experiments were performed in a model 400 vs. aggregometer of Chrono-Log (Havertown, PA, USA) coupled to a Chrono-Log recorder at 37 °C with constant stirring at 1200 rpm. The separation of platelets was performed with centrifugations in a 3L-R Heraeus Labofuge (Hvanau, Germany), a 400R Heraeus Labofuge and an RC-5B Sorvall (Newtown, CT, USA) refrigerated super speed centrifuge. Bovine serum albumin (BSA), PAF and analytical solvents for the biological assays were purchased from Sigma. Standard active thrombin was purchased from Sigma, St. Lewis, MO, USA. The measurements were performed in duplicates for each sample concentration in three different WRP preparations, in order to ensure reproducibility. All experiments were also followed by appropriate control tests of the solvent used (saline solution of BSA, DMSO aliquots in a saline solution of BSA-2.5 mg BSA/mL saline- or just in saline), in WRPs. […]

Data set [2] is described as follows: Stability in DMSO monitored by UV-Vis spectroscopy. Conditions: ambient temperature, monitored ~1 to 2 h. The format is physicochemical. On the procedure:
The UV-Vis spectra of all complexes were recorded in DMSO at ambient temperature, immediately after dissolution, as this is the medium used for the biological assays. The UV-Vis spectrum of 1 will be included in a publication that follows. The relevant spectra of complexes 2, 3, 5 and 6 are shown below in Figure 6 and Figure 7, respectively, while that of complex 7 (concentrated solution) is included in Figure S9.
The UV-Vis absorption spectra of the light-yellow solutions of complexes 2, 3, 5 and 6 were monitored over a period of ~1 to 2 h (not shown) to ensure stability for the relevant biological assays. […] The electronic spectra of all complexes display four rather identical absorption bands in the range of 259–334 nm that can be attributed to π → π* and n → π* or charge-transfer transitions. These bands display medium to weak molar extinction coefficients and are in the expected region for similar complexes. For the cobalt(II) complex 2, the very low intensity and rather broad absorption, centered at ~680 nm can be attributed to d-d transitions. Also for the copper(II) complex 3, the broad absorption band in the range of 660–870 nm, is attributed to d-d transition.

On to `CS(C)=O.[Cl][Cu][Cl].c1ccc(-c2cnc3ccccc3n2)nc1` [Complex 3, [Cu(pqx)Cl2(DMSO)]], for which the IC50 (usually the concentration at which inhibition is half-maximal) in data set [1] worked out at 3.1 ± 0.4 µM. The “stability of UV-Vis absorption spectra in DMSO” value (“stability” for short) in data set [2] is given as “not modified over time”.
For the compound `[Cl][Zn][Cl].c1ccc(-c2cnc3ccccc3n2)nc1` [Complex 4, [Zn(pqx)Cl2]], the “fold decrease of thrombin IC50 relative to the metal precursor” value in data set [1] (complex versus its metal precursor) is reported as ~ 12 fold. Moreover, the IC50 in data set [1] was 3.5 ± 0.3 µM.
On to [Co(pqx)Cl2(DMF)] [Complex 2], for which, in data set [1], the IC50 amounted to 8.9 ± 1.3 µM. In data set [2], the “stability” value was “not modified over time”.
On to [Fe(pqx)Cl2]2 [Complex 6], for which the concentration for half-maximal inhibition (IC50) in data set [1] was found to be 0.46 ± 0.03 µM. Moreover, in data set [2], the “stability” value is “not modified over time”.
Turning to [Mn(pqx)(H2O)2Cl2]2 [Complex 5], in data set [1], the IC50 came to 14 ± 2.1 µM. For the same compound, in data set [2], the “stability” value was “not modified over time”.
As for [Ni(pqx)Cl2]2 [Complex 7], the IC50 in data set [1] is 5.6 ± 0.34 µM.
In the case of mer-[Cr(pqx)Cl3(H2O)] [Complex 1], the IC50 in data set [1] was 54.6 ± 10.4 µM.
